Measured values published in US4731471A, “(5,6-dichloro-3-oxo-2,3,9,9a-tetrahydrofluoren-7-yl)-alkanoic acids and alkanimidamides bearing novel functional 9a-substituents” (Merck & Co., Inc., priority 1986, dated 1988).

How the values were obtained:
[1] = tested on: cerebrocartical tissue slices from cats; experiment: in vitro cat cerebrocortical tissue slice assay (HCO3^- -stimulated swelling); settings: Felis catus, racemate
Excerpt: This assay is described in detail in articles by: Cragoe, E. J., Jr.; Gould, N. P.; Woltersdorf, O. W., Jr.; Ziegler, C.: Bourke, R. S.; Nelson, L. R.; Kimelberg, H. K.; Waldman, J. B.; Popp, A. J.; Sedransk, N. J. Med. Chem. 1982, 25, 567, and by Rourke, R. S.: Kimelberg, H. K.; Daze, M.; Church, G. Neurochem. Res. 1983, 8, 5.
Cat pial surface slices (~0.5 mm thick) were cut from the cerebral convexities using a Stadie-Riggs microtome without any moistening. Each slice was then weighed on a torsion balance and immediately placed in a Warburg flask containing 2 mL incubation medium at room temperature (22° C.).
The basic composition of the incubation medium in mmol/l was: KCl, 27; NaCl, 100; glucose, 10; KH2 PO4, 1.2: MgSO4, 1.2; CaCl2, 1.3; HEPES (N-2-hydroxyethylpiperazine-N'-2-ethanesulfonic acid (Sigma)). This solution was titrated with NaOH to pH 7.8, and saturated with oxygen by bubbling the gas through the solution.
To obtain HCO3^- dependent swelling, a solution of NaHCO3 in the above medium was added from the side-arm of the flask to slices which had been incubated in 2 mL of medium without added HCO3 at 37° C. for 20 minutes to achieve a final concentration of 5 mmol. The slices were then incubated for an additional 40 minutes. For control experiments,0.5 mL of the medium without HCO3^- was similarly added from the side-arm. Inhibitors, when used, were present with the slices throughout the 60 minute incubation period. After 60 minutes, the tissue slices were separated from the medium by careful vacuum filtration, re-weighed, and then homogenized (10% w/v suspension) in 1N perchloric acid and then centrifuged. The supernatant was then assayed for electrolytes as previously described.
The tissue content of electrolytes is always expressed as micromoles per gram of the initial wet weight. Percent swelling was calculated as (final wet weight minus initial wet weight/initial wet weight)×100 and HCO3^- dependent swelling would be the increased swelling of slices due to added HCO3^- in media containing 28-29 mmol K^+. Such HCO3^- stimulated swelling is not seen in medium with a normal K^+ concentration (4 to 5 mmol).
The (1) in vitro cat cerebrocortical tissue slice assay, (2) the in vitro primary rat astrocyte culture assay and (3) the in vivo cat head injury assay. The first assay, the in vitro cat cerebrocortical tissue slice assay has been described by Marshall, L. F.; Shapiro, H. M.; Smith, R. W. In "Seminars in Neurological Surgery: Neural Trauma"; Popp, A. J.; Bourke, R. S.; Nelson, L. R.; Kimelberg, H, K,. Eds.; Raven Press: New York, 1979; p. 347, by Bourke, R. S.; Kimelberg, H, K.; Daze, M. A. in Brain Res. 1978, 154, 196, and by Bourke, R. S.; Kimelberg, H. K,; Nelson, L. R. in Brain Res. 1976, 105, 309. This method constitutes a rapid and accurate method of determining the intrinsic chloride inhibitory properties of the compounds of the invention in the target tissue.
Using in vitro cat cerebrocortical tissue slice assay, described in Example 1, compounds of the present invention can be tested for activity. This test provides the principal in vitro evaluation and consists of a determination of concentration vs. response curve. The addition of HCO3^- to isotonic, K^+ -rich saline-glucose incubation media is known to specifically stimulate the transport of Cl^- coupled with Na^+ and an osmotic equivalent of water in incubating slices of mammalian cerebral cortex. […] After addition of drug to the incubation media, detailed drug concentration-response curves are then obtained. The data are expressed as percent HCO3^- -stimulated swelling vs. drug concentration, from which the concentration of drug providing 50% inhibition of HCO3^- -stimulated swelling (I50 in molarity) is interpolated.
Adult cats of 2-3 kg body weight are employed in tissue slice studies. Prior to sacrifice, the animals are anesthetized with ketamine hydrochloride (Ketaset), 10 mg/kg intramuscularly. […]

[2] = tested on: astroglial edema; settings: cited from earlier work
[3] = tested on: experimental head injury; settings: cited from earlier work
[4] = tested on: clinical cases of head injury; settings: cited from earlier work

| SMILES | inhibition at 0.1 µM ([1]; Conc. 10^-7 M) [%] | inhibition at 0.01 µM ([1]; Conc. 10^-8 M) [%] | inhibition at 0.001 µM ([1]; Conc. 10^-9 M) [%] | inhibition at 0.0001 µM ([1]; Conc. 10^-10 M) [%] | inhibition at 10 pM ([1]; Conc. 10^-11 M) [%] | inhibition at 1 pM ([1]; Conc. 10^-12 M) [%] | activity in in vitro assay [2] | activity in in vivo assay [3] | reducing mortality in clinical cases of head injury [4] |
| --- | --- | --- | --- | --- | --- | --- | --- | --- | --- |
| O=C(O)COc1cc2c(c(Cl)c1Cl)C1=CC(=O)CCC1(CCO)C2 (racemic) [Example 2, {[5,6-Dichloro-9a-(2-hydroxyethyl)-3-oxo-2,3,9,9a-tetrahydro-1H-fluoren-7-yl]oxy}acetic acid] | 19 | 92 | 75 | 85 | 53 | 15 |  |  |  |
| C=C(CC)C(=O)c1ccc(OCC(=O)O)c(Cl)c1Cl [ethacrynic acid] |  |  |  |  |  |  | exhibited activity | exhibited activity | effective in reducing mortality in clinical cases of head injury |
